This is an account of results in PubChem BioAssay AID463199 (Broad Institute, 2010).

The structures appear in SMILES notation. The source made the active and inactive calls.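 Rule for the calls: active = AC50, the dose giving half-maximal effect, exceeds a fixed cutoff for a compound that rescues yeast growth under heat; inactive = the rest, inconclusive results apart.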 Where only a bound is given, the exact number is not on record here.

In the assay the test system is S. cerevisiae Burl-1 ts mutant growth, BacTiter-Glo, 38.5C 24 h. In words: growth induction of Burl-1 ts yeast mutant, dose response, counter-screen for SUMOylation pathway inhibitor project, whole organism, S. cerevisiae, luminescence (AID 463199).
As for `COc1ccc(S(=O)(=O)NC(C)C(=O)NCc2ccccn2)cc1Cl` (configuration not stated), the AC50 was > 42 µM (inactive).
On to `CC(Cc1ccc(O)c(O)c1)C(C)Cc1ccc(O)c(O)c1` (configuration not stated), for which the AC50 was > 42 µM (inactive).
Take `CCOc1ccccc1C(=O)NCc1ccc2c(c1)OCO2`: the AC50 is > 42 µM (inactive).
Regarding `COc1ccc(-c2nc(C#N)c(NC(C)c3ccccc3)o2)cc1OC` (configuration not stated), the AC50 is > 42 µM (inactive).
On to `COc1ccc(NC(=O)COc2cc(C)cc(C)c2)cc1S(=O)(=O)N1CCCCC1`, for which the AC50 is > 42 µM (inactive).
With `O=C(O)c1cc(Oc2ccc(C(F)(F)F)cc2Cl)ccc1[N+](=O)[O-]`, the AC50 is > 42 µM (inactive).
Regarding `O=C(NNc1ccccc1)C(CCO)C(=O)NNc1ccccc1`, the AC50 was > 42 µM (inactive).
In the case of `O=C(COC(=O)c1ccc([N+](=O)[O-])s1)c1ccc[nH]1`, the AC50 is > 42 µM (inactive).
For the compound `CNc1csc(C)c(C)c1=O`, the AC50 is > 42 µM (inactive).
`COc1ccc(S(=O)(=O)N2CCOC2CNC(=O)C(=O)NCc2ccncc2)cc1C` (configuration not stated): the AC50 is > 42 µM (inactive).
Consider `CN1C(=O)c2cccc3c(Cl)ccc(c23)C1=O`, for which the AC50 is > 42 µM (inactive).
`CCc1nnc(NC(=O)CSc2ccc(-c3ccc(-n4cccn4)cc3)nn2)s1`: the AC50 was > 42 µM (inactive).
Turning to `CCN(CC)c1nc2c(c(=O)[nH]c(=O)n2C)n1CCOc1ccccc1`, the AC50 is > 42 µM (inactive).
As to `CN(C)CC/C=C1\c2ccccc2Sc2ccc(Cl)cc21`, the AC50 is > 42 µM (inactive).
As for `COc1c2ccoc2nc2c(OC)c(OC[C@@H](O)C(C)(C)O)ccc12`, the AC50 was > 42 µM (inactive).
As for `COC(=O)c1sccc1NC(=O)CC1C(=O)NCCN1C(=O)Nc1ccc(F)cc1F` (configuration not stated), the AC50 was > 42 µM (inactive).
Then `CCOc1ccccc1CN1CCNC(=O)C1CC(=O)NCCN1CCOC1=O` (configuration not stated), with > 42 µM (inactive).
`CC(C)c1ccc(-c2cc(C(=O)N3CCOCC3)c3cc(Br)ccc3n2)cc1`: the AC50 was > 42 µM (inactive).
`CCOc1ccc2[nH]c(=O)c(CN(Cc3ccco3)C(CC)c3nnnn3Cc3ccccc3)cc2c1` (configuration not stated): the AC50 is > 42 µM (inactive).
On to `COc1ccc(-c2csc(NC(=O)CCS(=O)(=O)c3ccccc3)n2)c(OC)c1`, for which the AC50 was > 42 µM (inactive).
As to `COc1ccc(Nc2oc(-c3cccs3)nc2C#N)cc1`, the AC50 was > 42 µM (inactive).
Then `O=C(CCC(=O)OCC(=O)c1ccc(Br)cc1)Nc1cccc2cccnc12`, with > 42 µM (inactive); and `CCCCOc1ccc(C(=O)Nc2ccc(CN3CCOCC3)cc2)cc1`, with > 42 µM (inactive).
Turning to `CNC(=O)c1ccccc1NC(=O)c1c(O)c2c([nH]c1=O)CCCC2`, the AC50 is > 42 µM (inactive).
`Cc1ccc(C(C(=O)Nc2ccc3c(c2)OCO3)N(C)C(=O)Cc2c[nH]c3ccccc23)cc1` (configuration not stated): the AC50 was > 42 µM (inactive).
In the case of `CC(=O)N1CCc2cc(S(=O)(=O)NCCC3=CCCCC3)ccc21`, the AC50 was > 42 µM (inactive).
In the case of `Cc1c(NP(=O)(c2ccc(Br)cc2)c2ccc(Br)cc2)c(=O)n(-c2ccccc2)n1C`, the AC50 is > 42 µM (inactive).
For `CC(C)c1onc(C(=O)N(C)Cc2ccccc2)c1[N+](=O)[O-]`, the AC50 was > 42 µM (inactive).
Then `Cc1ccc2cccc(OCc3nnc(SCC(=O)O)n3C)c2n1`, with > 42 µM (inactive); and `Cn1c(NCc2ccco2)nc2c1c(=O)n(Cc1ccc(Cl)cc1)c(=O)n2C`, with > 42 µM (inactive).
With `Cc1cc(C(F)(F)F)c(C#N)c(=O)[nH]1`, the AC50 was > 42 µM (inactive).
Regarding `Cc1cc(NC(=O)c2ccc(N3C(=O)CCC3=O)cc2)no1`, the AC50 is > 42 µM (inactive).
For `CC1(C)CC(=O)C2=C(C1)Oc1ncn(CCO)c(=N)c1C2c1ccccc1` (configuration not stated), the AC50 is > 42 µM (inactive).
On to `CC(C)N(C(=S)Nc1cccc(S(=O)(=O)N(C)C)c1)c1ccccc1`, for which the AC50 was > 42 µM (inactive).
As for `Cc1[nH]oc(=O)c1N=Nc1ccccc1`, the AC50 is > 42 µM (inactive).
As to `COc1cccc(-n2c(SCC(=O)NC3CCCCC3)nc3n[nH]c(C)c3c2=N)c1`, the AC50 is > 42 µM (inactive).
With `Cc1ccc(C)c(-n2nnnc2SCC(=O)Nc2c(C)n(C)n(-c3ccccc3)c2=O)c1`, the AC50 is > 42 µM (inactive).
`CCOC(=O)CNC(=O)c1cccnc1`: the AC50 is > 42 µM (inactive).
As to `O=C(N/N=C/c1ccccn1)NC12CC3CC(CC(C3)C1)C2`, the AC50 is > 42 µM (inactive).
As to `O=C1CCN(Cc2ccccc2)CCN1CCOc1ccccc1`, the AC50 is > 42 µM (inactive).
For the compound `CCCCC1=CC2=CC(=O)C(C)(OC(=O)CC)C(=O)C2=CN1CCc1ccc(Br)cc1` (configuration not stated), the AC50 was > 42 µM (inactive).
With `CN(C=O)CP(=O)(O)CN(C)C=O`, the AC50 is > 42 µM (inactive).
Then `O=C(O)c1ccc(N=C2NC(=O)C(CO)(CO)S2)cc1`, with > 42 µM (inactive); and `COc1ccc(OC)c(N(CC(=O)N2CCCC2)S(=O)(=O)c2ccccc2)c1`, with > 42 µM (inactive).
`CCOc1ccc(CCNC(=O)COC(=O)COc2ccc(C(C)=O)cc2)cc1OCC`: the AC50 is > 42 µM (inactive).
Turning to `COc1ccc2c(c1)[C@H]1[C@H](CO2)[C@H](c2ccccc2)[C@]2(C)C(=O)Nc3ccc(F)cc3C(=O)N12`, the AC50 is > 42 µM (inactive).
With `CCOC(=O)c1ccc(NC(=O)c2nc[nH]c2C(=O)N2CCc3ccccc3C2)cc1`, the AC50 was > 42 µM (inactive).
For `Cc1cc(C)n(-c2nc(-c3cccc(Cl)c3)cs2)n1`, the AC50 is > 42 µM (inactive).
As to `CCN1C(=NCCCCO)N[C@@H](c2cccc(C(F)(F)F)c2)C(C(=O)OC)=C1C`, the AC50 was > 42 µM (inactive).
With `COC(=O)CCC(=O)OC1(C)C(=O)C2=CN(CCc3c[nH]c4ccccc34)C(c3ccc(OC)cc3)=CC2=C(Br)C1=O` (configuration not stated), the AC50 was > 42 µM (inactive).
As for `O=C(/C=C/c1ccc(Cl)cc1)NCc1ccncc1`, the AC50 is 42 µM.
As to `CCOC(=O)N1CCN(C(=O)c2ccc(OC)c(OC)c2)CC1`, the AC50 is > 42 µM (inactive).
The figure for `CSc1nncc(/C(C)=N\Nc2cccc(C)c2)n1` is > 42 µM (inactive); for `CCCCOc1ccc(CSC(=N)N)cc1Cl` it is > 42 µM (inactive).
For the compound `Cc1nn(C)c(C)c1-c1c(C#N)c(N)nc2c1CCCCCC2`, the AC50 is > 42 µM (inactive).
On to `Cc1ccc(C(=O)Nc2ccc3c(c2)OCCO3)c(Cl)c1`, for which the AC50 is > 42 µM (inactive).
On to `COc1ccc(CN2C(=O)c3c(c(C)n(C)c3C)C2C(=O)NC2CCC(C)CC2)cc1` (configuration not stated), for which the AC50 is > 42 µM (inactive).
On to `C/C=C(/C)C(=O)OC1c2c(ccc3ccc(=O)oc23)OC(C)(C)C1OC(=O)/C(C)=C\C` (configuration not stated), for which the AC50 was > 42 µM (inactive).
With `C#CCn1c(=NC(=O)CN2C(=O)CCC2=O)sc2cccc(OC)c21`, the AC50 is > 42 µM (inactive).
The figure for `Cc1cc(NC(=O)/C=C/c2ccco2)ccc1NC(=O)c1ccccc1` is > 42 µM (inactive).
Regarding `Cc1cc(C)nc(SCC2COc3ccccc3O2)n1` (configuration not stated), the AC50 is > 42 µM (inactive).
Regarding `Fc1cccc(Cl)c1CSc1nnc(CN2CCOCC2)n1-c1ccccc1`, the AC50 was > 42 µM (inactive).
On to `CCOC(=O)NNC(=O)CCn1c2c(c3ccccc31)CCCC2`, for which the AC50 was > 42 µM (inactive).
With `Cc1cc(C(=O)NN)n[nH]1`, the AC50 is > 42 µM (inactive).
In the case of `CCSc1nc2ccccc2c(=O)n1C1CCOC(C)(C)C1` (configuration not stated), the AC50 is > 42 µM (inactive).
In the case of `Cc1ccc(N(CC(=O)Nc2cccc(C)c2)S(=O)(=O)c2cccc3nonc23)cc1`, the AC50 is > 21 µM (inactive).
In the case of `O=C(COc1ncnc2c(Cl)cc(Cl)cc12)NCCC1=CCCCC1`, the AC50 was > 42 µM (inactive).
The figure for `CN(c1cccnc1)c1ncnc2[nH]ncc12` is > 42 µM (inactive); for `Nc1ccc(C2(c3ccc(N)cc3)OC(=O)c3ccccc32)cc1` it is > 42 µM (inactive); for `Cc1sc(-n2c(C)cc(C=C3C(=O)NC(=O)NC3=O)c2C)c(C#N)c1C` it is > 42 µM (inactive).
Consider `CCn1cc(C(=O)N2CCN(c3ccc(OC)cc3)CC2)c(=O)c2cc(S(=O)(=O)N3CCOCC3)ccc21`, for which the AC50 was > 42 µM (inactive).
For the compound `NC(=O)C1=C[C@@H](c2ccc(Br)cc2)C[C@@H](OCCCCO)O1`, the AC50 is > 42 µM (inactive).
For the compound `Cc1ccc(C(=O)Nc2nc(-c3ccc(F)cc3)cs2)o1`, the AC50 was > 42 µM (inactive).
As to `Cc1ccc(C2=NN(CC(=O)NCc3cccs3)C(=O)CC2)cc1`, the AC50 was > 42 µM (inactive).
The figure for `O=C(Cc1ccc(F)cc1)Nc1nc(-c2ccc(F)cc2)cs1` is > 42 µM (inactive).
Regarding `S=c1[nH]ccn1-c1cccc(Cl)c1`, the AC50 was > 42 µM (inactive).
As to `COC(C(=O)Nc1ccnn1C1CCN(Cc2cnn(C)c2)CC1)c1ccccc1` (configuration not stated), the AC50 was > 42 µM (inactive).
Turning to `CCOc1ccc(S(=O)(=O)N2CCN(CC(O)COc3cccc([N+](=O)[O-])c3)CC2)cc1` (configuration not stated), the AC50 was > 42 µM (inactive).
Consider `COc1cc2c(cc1NC(=O)c1cccnc1)oc1ccccc12`, for which the AC50 is > 42 µM (inactive).
With `CC(C)(C)n1cnc2cc(NC(=O)c3ccc(Cl)cc3)ccc21`, the AC50 was > 42 µM (inactive).
Then `CC1(C)CC(=O)C=C(OC(=O)c2ccc(Cl)cc2)C1`, with > 42 µM (inactive); and `CCOc1ccc(OCC)c(NC(=O)C2COc3ccccc3O2)c1` (configuration not stated), with > 42 µM (inactive).
Regarding `COCCN(C(=O)CSc1nnc(-c2ccc(C)cc2)n1N)c1c(N)n(Cc2ccccc2)c(=O)[nH]c1=O`, the AC50 is > 42 µM (inactive).
Consider `O=C(O)/C=C/c1cccnc1`, for which the AC50 is > 42 µM (inactive).
As to `Cc1cc(S(=O)(=O)N2CCCC(N3CCOCC3)C2)c(C)cc1Cl` (configuration not stated), the AC50 is > 42 µM (inactive).
`CCOc1ccc(NC(=O)CSc2nnc(Cc3csc(C)n3)o2)cc1`: the AC50 is > 42 µM (inactive).
The figure for `COc1cc(NC(=O)c2cc(Cl)ccc2Cl)ccc1-c1cc2ccccc2oc1=O` is > 42 µM (inactive).

As a reminder, the AC50 is the midpoint of the concentration-response curve, whichever way the signal moves.
